{"source": "patent US7781565B2", "about": "(priority 2006, dated 2010)", "note": "“Also recorded” adds a separate entry of the source."}
{"system": "NCI-60 cell lines", "assay_type": "cell-based, human"}
{"substance": "LLLRSGG", "Cell Line with which the peptide (and its tripeptide motif) is associated": "RPMI-8226-Leukemia"}
{"substance": "LLNPARG", "Cell Line the peptide is associated with (peptide recovered from phage library selection on this NCI-60 cell line)": "SN12C Renal"}
{"substance": "LLRAGVR", "Cell Line the peptide is associated with (peptide recovered from phage library selection on this NCI-60 cell line)": "UO31 Renal"}
{"substance": "LLRGLEL", "Cell Line with which the peptide (and its tripeptide motif) is associated": "HL-60-Leukemia"}
{"substance": "LLRGLRP", "Cell Line the peptide is associated with (peptide recovered from phage library selection on this NCI-60 cell line)": "TK-10 Renal"}
{"substance": "LLRLSLA", "Cell Line with which the peptide (and its tripeptide motif) is associated": "H23-Lung"}
{"substance": "LLRPAHG", "Cell Line (NCI-60 cell line the peptide and its motif are associated with)": "SK-MEL-2 Melanoma"}
{"substance": "LLRPGTV", "Cell Line (NCI-60 cell line the peptide is associated with)": "HCC-2998-Colon"}
{"substance": "LLRRAVF", "Cell Line with which the peptide (and its tripeptide motif) is associated": "Hop-62-Lung"}
{"substance": "LLRRGIG", "Cell Line (NCI-60 cell line the peptide and its motif are associated with)": "SK-MEL-5 Melanoma"}
{"substance": "LLRRLSW", "Cell Line (NCI-60 cell line the peptide and its motif are associated with)": "SK-MEL-2 Melanoma"}
{"substance": "LLRSAAP", "Cell Line with which the peptide (and its tripeptide motif) is associated": "RPMI-8226-Leukemia"}
{"substance": "LLRSHGV", "Cell Line (NCI-60 cell line the peptide is associated with)": "SF-295 CNS"}
{"substance": "LLRSSLG", "Cell Line (NCI-60 cell line the peptide is associated with)": "HCT-116 Colon"}
{"substance": "LLRSVGY", "Cell Line (NCI-60 cell line the peptide and its motif are associated with)": "DU-145 Prostate"}
{"substance": "LLSAARF", "Cell Line the peptide is associated with (peptide recovered from phage library selection on this NCI-60 cell line)": "MDA-MB-231 Breast"}
{"substance": "LLSASLV", "Cell Line with which the peptide (and its tripeptide motif) is associated": "K-562-Leukemia"}
{"substance": "LLSFLGR", "Cell Line with which the peptide (and its tripeptide motif) is associated": "Molt-4-Leukemia"}
{"substance": "LLSGVIL", "Cell Line (NCI-60 cell line the peptide is associated with)": "LOX-IMVI Melanoma"}
{"substance": "LLSILKA", "Cell Line (NCI-60 cell line the peptide and its motif are associated with)": "IGROV1 Ovarian"}
{"substance": "LLSLDPG", "Cell Line (NCI-60 cell line the peptide and its motif are associated with)": "SK-MEL-2 Melanoma"}
{"substance": "LLSPRGT", "Cell Line (NCI-60 cell line the peptide is associated with)": "SF-295 CNS"}
{"substance": "LLSRAQA", "Cell Line the peptide is associated with (peptide recovered from phage library selection on this NCI-60 cell line)": "BT-549 Breast"}
{"substance": "LLSRRVG", "Cell Line (NCI-60 cell line the peptide is associated with)": "SNB-75 CNS"}
{"substance": "LLSSRRC", "Cell Line (NCI-60 cell line the peptide and its motif are associated with)": "SK-MEL-2 Melanoma"}
{"substance": "LLSTSIR", "Cell Line with which the peptide (and its tripeptide motif) is associated": "RPMI-8226-Leukemia"}
{"substance": "LLSTVWV", "Cell Line the peptide is associated with (peptide recovered from phage library selection on this NCI-60 cell line)": "TK-10 Renal"}
{"substance": "LLSVTSX", "Cell Line the peptide is associated with (peptide recovered from phage library selection on this NCI-60 cell line)": "SN12C Renal"}
{"substance": "LLVSLSS", "Cell Line the peptide is associated with (peptide recovered from phage library selection on this NCI-60 cell line)": "RXF393 Renal"}
{"substance": "LMGRASG", "Cell Line with which the peptide (and its tripeptide motif) is associated": "SR Leukemia"}
{"substance": "LMLVSGK", "Cell Line the peptide is associated with (peptide recovered from phage library selection on this NCI-60 cell line)": "NCI/ADR-RES Breast"}
{"substance": "LNAGGSG", "Cell Line (NCI-60 cell line the peptide and its motif are associated with)": "DU-145 Prostate"}
{"substance": "LPCGGLA", "Cell Line (NCI-60 cell line the peptide is associated with)": "SNB-19 CNS; also recorded: SF-539 CNS"}
{"substance": "LPGRLRV", "Cell Line (NCI-60 cell line the peptide and its motif are associated with)": "OVCAR-5 Ovarian"}
{"substance": "LPLGLVS", "Cell Line the peptide is associated with (peptide recovered from phage library selection on this NCI-60 cell line)": "T-47D Breast"}
{"substance": "LPLLRGI", "Cell Line with which the peptide (and its tripeptide motif) is associated": "HL-60-Leukemia"}
{"substance": "LPRRAVF", "Cell Line (NCI-60 cell line the peptide and its motif are associated with)": "DU-145 Prostate"}
{"substance": "LQGAGIH", "Cell Line (NCI-60 cell line the peptide and its motif are associated with)": "A498 Renal"}
{"substance": "LQGSGAY", "Cell Line (NCI-60 cell line the peptide and its motif are associated with)": "OVCAR-8 Ovarian"}
{"substance": "LQHLGSG", "Cell Line (NCI-60 cell line the peptide and its motif are associated with)": "OVCAR-8 Ovarian"}
{"substance": "LQRGVAR", "Cell Line (NCI-60 cell line the peptide and its motif are associated with)": "OVCAR-5 Ovarian"}
{"substance": "LRAGGSY", "Cell Line (NCI-60 cell line the peptide and its motif are associated with)": "IGROV1 Ovarian"}
{"substance": "LRARGGH", "Cell Line (NCI-60 cell line the peptide is associated with)": "HT-29 Colon"}
{"substance": "LRASLLW", "Cell Line (NCI-60 cell line the peptide is associated with)": "HCC-2998-Colon"}
{"substance": "LRAVEFL", "Cell Line (NCI-60 cell line the peptide is associated with)": "MALME-3M Melanoma"}
{"substance": "LRFRRGV", "Cell Line (NCI-60 cell line the peptide and its motif are associated with)": "PC3 Prostate"}
{"substance": "LRGGLVS", "Cell Line with which the peptide (and its tripeptide motif) is associated": "EKVX-Lung"}
{"substance": "LRGSHVA", "Cell Line the peptide is associated with (peptide recovered from phage library selection on this NCI-60 cell line)": "ACHN Renal"}
{"substance": "LRGSRQF", "Cell Line (NCI-60 cell line the peptide and its motif are associated with)": "SK-MEL-28 Melanoma"}
{"substance": "LRGSVGR", "Cell Line (NCI-60 cell line the peptide and its motif are associated with)": "SK-MEL-28 Melanoma"}
{"substance": "LRGSYVL", "Cell Line (NCI-60 cell line the peptide is associated with)": "SW620-Colon"}
{"substance": "LRGVYVA", "Cell Line the peptide is associated with (peptide recovered from phage library selection on this NCI-60 cell line)": "NCI/ADR-RES Breast"}
{"substance": "LRIARGV", "Cell Line (NCI-60 cell line the peptide is associated with)": "COLO-205-Colon"}
{"substance": "LRLSGHD", "Cell Line the peptide is associated with (peptide recovered from phage library selection on this NCI-60 cell line)": "NCI/ADR-RES Breast"}
{"substance": "LRLSSIP", "Cell Line with which the peptide (and its tripeptide motif) is associated": "CCRF-CEM Leukemia"}
{"substance": "LRPGLRS", "Cell Line the peptide is associated with (peptide recovered from phage library selection on this NCI-60 cell line)": "CAIK-1 Renal"}
{"substance": "LRRSSFS", "Cell Line with which the peptide (and its tripeptide motif) is associated": "K-562-Leukemia"}
{"substance": "LRSDPRS", "Cell Line (NCI-60 cell line the peptide is associated with)": "HT-29 Colon"}
{"substance": "LRSGAGS", "Cell Line with which the peptide (and its tripeptide motif) is associated": "Molt-4-Leukemia"}
{"substance": "LRSGRGS", "Cell Line the peptide is associated with (peptide recovered from phage library selection on this NCI-60 cell line)": "MDA-MB-435-Breast", "Cell Line with which the peptide (and its tripeptide motif) is associated": "RPMI-8226-Leukemia"}
{"substance": "LRSGSLG", "Cell Line (NCI-60 cell line the peptide is associated with)": "SF-268 CNS"}
{"substance": "LRSMAVM", "Cell Line the peptide is associated with (peptide recovered from phage library selection on this NCI-60 cell line)": "ACHN Renal"}
{"substance": "LRSRLGF", "Cell Line with which the peptide (and its tripeptide motif) is associated": "SR Leukemia"}
{"substance": "LRSSGAT", "Cell Line with which the peptide (and its tripeptide motif) is associated": "H322-Lung"}
{"substance": "LRSSLVS", "Cell Line the peptide is associated with (peptide recovered from phage library selection on this NCI-60 cell line)": "RXF393 Renal"}
{"substance": "LRSSMML", "Cell Line (NCI-60 cell line the peptide is associated with)": "MALME-3M Melanoma"}
{"substance": "LRSVGSW", "Cell Line (NCI-60 cell line the peptide is associated with)": "HCT-15 Colon"}
{"substance": "LRSWLLF", "Cell Line (NCI-60 cell line the peptide is associated with)": "HT-29 Colon"}
{"substance": "LRSYAWS", "Cell Line (NCI-60 cell line the peptide is associated with)": "SNB-19 CNS; also recorded: SF-539 CNS"}
{"substance": "LRVDQLY", "Cell Line (NCI-60 cell line the peptide and its motif are associated with)": "UACC62 Melanoma"}
{"substance": "LRVGHAG", "Cell Line the peptide is associated with (peptide recovered from phage library selection on this NCI-60 cell line)": "SN12C Renal"}
{"substance": "LRVGIGY", "Cell Line with which the peptide (and its tripeptide motif) is associated": "H23-Lung"}
{"substance": "LRVGXPG", "Cell Line the peptide is associated with (peptide recovered from phage library selection on this NCI-60 cell line)": "NCI/ADR-RES Breast"}
{"substance": "LRVPGGP", "Cell Line (NCI-60 cell line the peptide is associated with)": "KM-12C Colon"}
{"substance": "LRVRYAV", "Cell Line with which the peptide (and its tripeptide motif) is associated": "H322-Lung"}
{"substance": "LRVSNPR", "Cell Line (NCI-60 cell line the peptide and its motif are associated with)": "UACC62 Melanoma"}
{"substance": "LRVSRGL", "Cell Line the peptide is associated with (peptide recovered from phage library selection on this NCI-60 cell line)": "TK-10 Renal"}
{"substance": "LRVYGEG", "Cell Line (NCI-60 cell line the peptide is associated with)": "SNB-75 CNS"}
{"substance": "LRYDLRS", "Cell Line with which the peptide (and its tripeptide motif) is associated": "RPMI-8226-Leukemia"}
{"substance": "LRYNLRS", "Cell Line with which the peptide (and its tripeptide motif) is associated": "RPMI-8226-Leukemia"}
{"substance": "LRYWAAV", "Cell Line (NCI-60 cell line the peptide and its motif are associated with)": "SK-MEL-2 Melanoma"}
{"substance": "LSAVSVK", "Cell Line (NCI-60 cell line the peptide and its motif are associated with)": "SK-MEL-5 Melanoma"}
{"substance": "LSERRGV", "Cell Line (NCI-60 cell line the peptide is associated with)": "SF-295 CNS"}
{"substance": "LSFSRGS", "Cell Line with which the peptide (and its tripeptide motif) is associated": "HL-60-Leukemia"}
{"substance": "LSGRVIV", "Cell Line the peptide is associated with (peptide recovered from phage library selection on this NCI-60 cell line)": "UO31 Renal"}
{"substance": "LSGSVLQ", "Cell Line (NCI-60 cell line the peptide is associated with)": "HCT-116 Colon"}
{"substance": "LSKGGSE", "Cell Line the peptide is associated with (peptide recovered from phage library selection on this NCI-60 cell line)": "T-47D Breast"}
{"substance": "LSLAGAG", "Cell Line (NCI-60 cell line the peptide is associated with)": "HT-29 Colon"}
{"substance": "LSLRGGL", "Cell Line the peptide is associated with (peptide recovered from phage library selection on this NCI-60 cell line)": "MDA-MB-231 Breast"}
{"substance": "LSMLRSA", "Cell Line with which the peptide (and its tripeptide motif) is associated": "H322-Lung"}
{"substance": "LSRGSVA", "Cell Line (NCI-60 cell line the peptide and its motif are associated with)": "M14 Melanoma"}
{"substance": "LSSGLVS", "Cell Line with which the peptide (and its tripeptide motif) is associated": "H460-Lung"}
{"substance": "LSTPGRV", "Cell Line the peptide is associated with (peptide recovered from phage library selection on this NCI-60 cell line)": "UO31 Renal"}
{"substance": "LSVLRVL", "Cell Line (NCI-60 cell line the peptide and its motif are associated with)": "IGROV1 Ovarian"}
{"substance": "LTAAVMV", "Cell Line (NCI-60 cell line the peptide is associated with)": "SNB-75 CNS"}
{"substance": "LTGGLVF", "Cell Line (NCI-60 cell line the peptide and its motif are associated with)": "DU-145 Prostate"}
{"substance": "LVGRGVR", "Cell Line (NCI-60 cell line the peptide is associated with)": "SF-268 CNS"}
{"substance": "LVGRVKL", "Cell Line (NCI-60 cell line the peptide is associated with)": "HT-29 Colon"}
{"substance": "LVGSSRV", "Cell Line (NCI-60 cell line the peptide and its motif are associated with)": "SK-OV-3-3 Ovarian"}
{"substance": "LVPLVSG", "Cell Line (NCI-60 cell line the peptide and its motif are associated with)": "SK-OV-3-3 Ovarian"}
{"substance": "LVRASNG", "Cell Line (NCI-60 cell line the peptide and its motif are associated with)": "SK-MEL-28 Melanoma"}
{"substance": "LVRDGVL", "Cell Line (NCI-60 cell line the peptide is associated with)": "MALME-3M Melanoma"}
{"substance": "LVRLVSL", "Cell Line (NCI-60 cell line the peptide and its motif are associated with)": "IGROV1 Ovarian"}
{"substance": "LVRSSGL", "Cell Line with which the peptide (and its tripeptide motif) is associated": "Hop-92-Lung"}
{"substance": "LVRVSGR", "Cell Line with which the peptide (and its tripeptide motif) is associated": "HL-60-Leukemia"}
{"substance": "LVSGYNG", "Cell Line with which the peptide (and its tripeptide motif) is associated": "Hop-92-Lung"}
{"substance": "LVSSGSK", "Cell Line with which the peptide (and its tripeptide motif) is associated": "HL-60-Leukemia"}
{"substance": "LVSSSEP", "Cell Line with which the peptide (and its tripeptide motif) is associated": "HL-60-Leukemia"}
{"substance": "LVSTRWA", "Cell Line the peptide is associated with (peptide recovered from phage library selection on this NCI-60 cell line)": "RXF393 Renal"}
{"substance": "LVSTSNR", "Cell Line (NCI-60 cell line the peptide and its motif are associated with)": "SK-MEL-2 Melanoma"}
{"substance": "LVSVNGA", "Cell Line (NCI-60 cell line the peptide is associated with)": "SNB-19 CNS; also recorded: SF-539 CNS"}
{"substance": "LVSVWSR", "Cell Line (NCI-60 cell line the peptide is associated with)": "HCT-15 Colon"}
